Assay results published in patent US9687493B2, “Use of NK-1 receptor antagonists for treating hypomagnesemia, neurogenic inflammation, and cardiac dysfunction associated with EGFR-blocking drugs” (THE GEORGE WASHINGTON UNIVERSITY, priority 2014, dated 2017).
Like-named read-outs stand apart in the source and are kept apart here.

Tests used:
[1] = rat, in vivo
Description: At periodic intervals, blood was collected (˜0.5 ml) aseptically from the tail of anaesthetized rats (2% isoflurane, EZ Anesthesia Chamber with nose cone)(13, 14) in sterile microtainer plasma separator tubes containing heparin and the protease inhibitor, aprotinin (Sigma Chemicals, St. Louis Mo.) to yield final blood concentrations of 10.74 units/ml and 0.016 units/ml, respectively. For subsequent samplings, the scab was carefully removed, and the process was repeated. Plasma was obtained after centrifugation (12,000 rpm, 2 min, RT, IDEXX StatSpin VT, Iris International, Inc., Westwood, Mass.). Tail bleed samples were used for assessment of plasma Mg, and substance P levels. Sacrifice blood samples (˜8 ml collected in heparin plus aprotinin containing BD vacutainer SST tubes) were taken from anaesthetized, heparinized (0.3-0.4 ml 358 units/ml heparin in 0.9% NaCl, i.p.) rats from either the vena cava or by cardiac puncture, and were centrifuged (3,500 rpm, 10 min, RT). […]
Hypomagnesemia alone in rodents can promote neutrophil free radical generating activity (Mak et al., Exp. & Clin. Cardiol. 2011, 16(4):121-124; Mak et al., Magnesium Res 2003, 16(2):91-97). […] Circulating neutrophil basal superoxide generating activity was determined as SOD-inhibitable reduction of cytochrome c (FIG. 3A). Plasma 8-isoprostane was assessed by a colorimetric ELISA kit (FIG. 3B). […]

neutrophils = details: rat, in vivo
Description: (§1) At periodic intervals, blood was collected (˜0.5 ml) aseptically from the tail of anaesthetized rats (2% isoflurane, EZ Anesthesia Chamber with nose cone)(13, 14) in sterile microtainer plasma separator tubes containing heparin and the protease inhibitor, aprotinin (Sigma Chemicals, St. Louis Mo.) to yield final blood concentrations of 10.74 units/ml and 0.016 units/ml, respectively. For subsequent samplings, the scab was carefully removed, and the process was repeated. Plasma was obtained after centrifugation (12,000 rpm, 2 min, RT, IDEXX StatSpin VT, Iris International, Inc., Westwood, Mass.). Tail bleed samples were used for assessment of plasma Mg, and substance P levels. Sacrifice blood samples (˜8 ml collected in heparin plus aprotinin containing BD vacutainer SST tubes) were taken from anaesthetized, heparinized (0.3-0.4 ml 358 units/ml heparin in 0.9% NaCl, i.p.) rats from either the vena cava or by cardiac puncture, and were centrifuged (3,500 rpm, 10 min, RT). In addition to the above plasma parameters, sacrifice plasma was also assayed for 8-isoprostane levels, and the whole blood samples were processed for neutrophil isolation and assessment of superoxide anion production.
At sacrifice, whole blood (3 ml) samples were obtained; neutrophils were isolated by a step-gradient centrifugation method (13,−16). Superoxide anion production from neutrophils (0.5-0.75×10^6/ml) with (stimulated) or without (basal) PMA (phorbol myristate acetate, 100 ng/ml) was assayed in a phosphate buffer (pH 7.6) containing 5 mM glucose, 1 mM CaCl2, 1 mM MgCl2, and 75 μM cytochrome c±50 μg SOD. Superoxide generation was estimated as SOD-inhibitable reduction of cytochrome c using the extinction coefficient: E550=2.1×10^4M^−1cm^−1.
Hypomagnesemia alone in rodents can promote neutrophil free radical generating activity (Mak et al., Exp. & Clin. Cardiol. 2011, 16(4):121-124; Mak et al., Magnesium Res 2003, 16(2):91-97). In the present study, blood was sampled from rats treated with erlotinib (starting 10 mg/kg/day, oral) and/or Emend (aprepitant, starting 2 mg/kg/day, oral) at 9 weeks of exposure. Circulating neutrophil basal superoxide generating activity was determined as SOD-inhibitable reduction of cytochrome c (FIG. 3A). Plasma 8-isoprostane was assessed by a colorimetric ELISA kit (FIG. 3B). Values for erlotinib±Emend rats were compared to time-matched controls, and are means±SEM of 4-6 rats per group. ** p<0.01 versus control; ++p<0.01 versus erlotinib alone. […] Enhanced systemic oxidative stress, as represented by increased total plasma 8-isoprostane content (FIG. 3B), was prominent by 9 weeks (210% increase, p<0.01).

[2] = male, Sprague-Dawley, rat, in vivo, 9 weeks
Description: Male Sprague-Dawley rats (˜150 g) were purchased from Hilltop Lab Animals (Scottdale, Pa.). After one week of quarantine, the rats were divided into 4 groups: (1) Control group (N=5) receiving Mg normal diet (25 mmole Mg Oxide/kg food); (2) Erlotinib treated group (N=5, receiving erlotinib at a starting dose of 10 mg/kg/day in the diet); (3) Erlotinib+Emend group (N=7, receiving erlotinib plus Emend at a starting dose of 2 mg/kg/day in the diet); and (4) Emend alone group (N=5).

[3] = rat, in vivo; remark: listed apart in the source
Description: Anesthetized rats were subjected to echocardiography periodically during the treatment regimens using a GE VingMed System Five Echocardiogram System (12, 13, 17, and 18). Heart rate and rectal temperature (35.9-37.5° C.) were monitored constantly during the imaging. Animals were placed on a warming platform with paws taped down to limit any motion during imaging, and a sterile eye lubricant was applied to prevent eye drying during the procedure. Hair over the thorax was removed first with an electric clipper, and then with a depilatory cream (<2 min exposure). Animals were imaged (10 MHz probe) for about 20 minutes at an image depth of 3 cm. This imaging system allows for both cardiac structure and function evaluation in rats. Systolic function, measured as % fractional shortening (% FS) using M-mode imaging, and left ventricular ejection fraction (LVEF), calculated from M-mode measurements, were assessed. Key anatomical parameters (IVSd & s=inter-ventricular septum diameter in diastole and systole; and LVPWd & s=LV posterior wall thickness in diastole or systole) were measured to assess the presence of dilated or hypertrophic cardiomyopathy. Measurements of the aortic and pulmonary artery diameters were used to calculate stroke volumes. Aortic pressure max (AoPmax) was assessed; and spectral Doppler velocities were measured for the pulmonic and aortic outflows to calculate cardiac output (CO), and for the mitral valve inflows to assess ventricular diastolic function (mitral valve E and A wave velocities and the E/A ratio were obtained). After echocardiography, animals were placed in room air until awake, and observed until fully recovered.
Rats treated with erlotinib (starting 10 mg/kg/day, oral) and/or Emend (aprepitant, starting 2 mg/kg/day, oral) received echocardiography at the indicated intervals (FIGS. 5A-5C).
Table 3 legend: Interventricular septum dimension in diastole (IVSd) and systole (IVSs); and LV posterior wall thickness in diastole (LVPWd) and systole (LVPWs). Rats treated with erlotinib (starting 10 mg/kg/day, oral) and/or Emend (aprepitant, starting 2 mg/kg/day, oral) received echocardiography at the indicated intervals. Values (% change) for erlotinib±Emend rats were compared to time-matched controls, and are means±SEM of 5-7 rats per group.

[4] = Plasma magnesium by atomic absorption flame emission spectroscopy; assay type: in vivo, Sprague-Dawley rats; details: erlotinib starting 10 mg/kg/day oral
Description: Individually-housed rats were weighed and food consumption recorded daily to obtain actual drug dosage: time-range average erlotinib dose over 9 weeks was 7.07 mg/kg/day, and time-range average Emend dose over 9 weeks was 1.41 mg/kg/day.
Magnesium levels in 1:50 or 1:100 diluted, acidified (nitric acid) plasma samples were determined by atomic absorption flame emission spectroscopy (wavelength=285.2 nm) using an AA-6200 Shimadzu spectrophotometer (Columbia, Md.) as described (13). Values obtained from standard curves were mg/dl, and reported as % of control.
Plasma was assessed for magnesium by flame emission atomic absorption spectroscopy (FIG. 2A). Data are the means±SEM of 5-7 animals per group. * p<0.05, **p<0.01 and # p<0.001 compared with the time-matched control group; +p<0.055 versus erlotinib alone. Plasma SP (FIG. 2B) was assessed by a colorimetric ELISA kit.

[5] = test system: nitro-tyrosine in cardiac tissue; experiment: Cardiac nitro-tyrosine immunohistochemical assessment; assay type: in vivo, Sprague-Dawley rats; details: 9 wk of Erlotinib treatment
Description: Cardiac tissue was rapidly excised, rinsed in saline, embedded in OCT compound, quickly frozen and kept at […] until used. Cryosections, 5 um thick, were stained by an indirect, immunohistochemical staining method (13) using rabbit anti-rat Nitrotyrosine antibody (5 ug/ml; Millipore, Billerica, Mass.) and the Vecta-Stain Elite ABC kit immunoperoxidase system (Vector Laboratories, Burlingame, Calif.). Samples were examined under an Olympus BX60 microscope, and multiple images were taken with a digital camera (Evolution Color MP; Media Cybernetics, Silver Spring, Md.). Briefly, fresh frozen sections were fixed in 10% formaldehyde, washed in PBS, incubated with 0.3% hydrogen peroxide in methanol for 30 min to block endogenous peroxidase, washed in PBS and incubated overnight at 4 C with rabbit anti nitrotyrosine antibody, which was applied on every slide except negative control. ABC kit reagents for horseradish peroxidase and 3-3′diaminebenzidine (DAB) were used to visualize the antigen-antibody reaction product as brown color. The sections were counterstained with hematoxylin, rinsed, dehydrated and cleared in series of ethanol and xylene and coverslipped.

[6] = Plasma substance P (SP) by ELISA; assay type: in vivo, Sprague-Dawley rats; details: erlotinib
Description: (§2) Experiments on animals were conducted in accordance with the principles given in the US Department of Health and Human Services Guide for the Care and Use of Laboratory Animals and were approved by The George Washington University Institutional Animal Care and Use Committee. Male Sprague-Dawley rats (125-150 g) were purchased from Hilltop Lab Animals, Inc. (Scottdale, Pa.). After 1 week of quarantine, all age-matched rats were placed on an ad libitum Mg normal diet (25 mmole magnesium oxide/kg food regarded as 100% recommended daily allowance for rodents) obtained from Harlan-Teklad (Madison, Wis.) containing extracted casein as the diet base supplemented with essential vitamins and nutrients; or the same diet supplemented with erlotinib (OSI Pharmaceuticals, LLC, Northbrook, Ill. 60062, USA) to obtain a starting dose of 10 mg/kg/day, Emend® (as aprepitant, Merck & Co., INC. USA) to obtain a starting dose of 2 mg/kg/day, or both agents at these doses. Individually-housed rats were weighed and food consumption recorded daily to obtain actual drug dosage: time-range average erlotinib dose over 9 weeks was 7.07 mg/kg/day, and time-range average Emend dose over 9 weeks was 1.41 mg/kg/day. Rats had free access to distilled-deionized water, and were on a 12 h light/dark cycle for up to 9 weeks.
as §1

[7] = rat, in vivo; remark: listed apart in the source
Description: as §2, with “weeks. […]” for “weeks.”

cancer cells = details: through NOX-4 up-regulation; cited from earlier work
[8] = patients with colorectal cancer, monoclonal antibodies targeting the EGFR; cited from earlier work

C#Cc1cccc(Nc2ncnc3cc(OCCOC)c(OCCOC)cc23)c1 [Erlotinib, erlotinib]
increase of total plasma 8-isoprostane content [1]: 210% | neutrophil basal superoxide generating activity, higher than control (neutrophils): 3 fold | number of animals that developed facial lesion [2]: 5 | decline in IVSd ([3]; male, Sprague-Dawley): 12.8-16.8% | decline in LVPWs ([3]; male, Sprague-Dawley): 9.3-21.9% | fall in LVPWd ([3]; male, Sprague-Dawley): 15.6-20.9% | lower IVSs ([3]; male, Sprague-Dawley): 11.4-17.5% | LV % fractional shortening (LV % FS) lower than time-matched control ([3]; male, Sprague-Dawley, 7 weeks): 17.2% | LV ejection fraction (LVEF) lower than time-matched control ([3]; male, Sprague-Dawley, 7 weeks): 10.4% | aortic pressure maximum lower than control ([3]; male, Sprague-Dawley, 7 weeks): 17.1% | cardiac output reduced vs control ([3]; male, Sprague-Dawley, 7 weeks): 18.8% | LV % fractional shortening (LV % FS) lower than time-matched control ([3]; male, Sprague-Dawley, 9 weeks): 17.7% | LV ejection fraction (LVEF) lower than time-matched control ([3]; male, Sprague-Dawley, 9 weeks): 11% | aortic pressure maximum lower than control ([3]; male, Sprague-Dawley, 9 weeks): 27.5% | cardiac output reduced vs control ([3]; male, Sprague-Dawley, 9 weeks): 20.3% | mitral valve E/A ratio reduction ([3]; male, Sprague-Dawley, 9 weeks): 17.5% | changes in cardiac contractile function [3]: No significant changes | mitral valve E/A ratio [3]: not significantly affected | change in circulating Mg level vs time-matched control ([4]; 1.5 week): −2% | change in circulating Mg level vs time-matched control ([4]; 9 weeks, p<0.001): −26% | change in circulating Mg level vs time-matched control ([4]; wk 3): −9% | change in circulating Mg level vs time-matched control ([4]; wk 5): −13% | change in circulating Mg level vs time-matched control ([4]; wk 7): −16% | cardiac nitro-tyrosine (NT) presence, immunohistochemical staining [5]: substantial perivascular and diffused NT presence | increase in circulating SP vs time-matched control ([6]; week 3, p<0.05): 27.3% | increase in circulating SP vs time-matched control ([6]; week 5, NS): 12.3% | increase in circulating SP vs time-matched control ([6]; week 9, p<0.01): 25.4% | food consumption compared to controls [7]: Neither ERL nor Emend affected food consumption | cellular oxidative stress (cancer cells): can provoke cellular oxidative stress

panitumumab
hypomagnesemia in treated patients [8]: pronounced hypomagnesemia
